Values of other authors in patent US20030119753A1, “Novel ascorbic acid compounds, methods of synthesis and application use thereof” (priority 2001, published 2003).

Conditions: relative to ascorbic acid

SMILES: O=C1O[C@H]([C@@H](O)CO)C(O)=C1OS(=O)(=O)O [L-ascorbate 2-sulphate]
- more stable than ascorbic acid: 20 times
